≈ marks a conversion by molar mass, not a printed value. Where “and” joins values, the source holds several entries; their conditions need not be identical. Equal entries are not always repeated.
How the values were obtained:
[1] = system: Aphidius rhopalosiphi; conditions: acute; duration: 2 days; mortality
[2] = system: Phasianus sp.; conditions: oral, mortality; for LD50: acute, unspecified
[3] = system: Oncorhynchus mykiss; conditions: chronic/long-term; duration: 14 days; growth
[4] = system: Coturnix japonica; conditions: acute, oral, mortality
[5] = system: Lepomis macrochirus; conditions: acute; duration: 96 hours; mortality
[6] = system: Rattus norvegicus
[7] = system: Folsomia candida; conditions: chronic/long-term; duration: 28 days
[8] = system: Colinus virginianus; conditions: for LC50 / LD50: acute, oral, mortality; for LC50: diet
[9] = system: Cucumis sativus; conditions: acute; duration: 21 days; biomass
[10] = system: Apis mellifera; conditions: acute; duration: 48 hours; dermal; mortality
[11] = system: Daphnia magna; conditions: chronic/long-term; duration: 21 days; reproduction
[12] = system: Hypoaspis aculeifer; conditions: chronic/long-term; duration: 16 days; reproduction
[13] = system: Oryctolagus sp.; conditions: acute; oral; mortality
[14] = system: Anas platyrhynchos; conditions: for LD50: acute, unspecified; for LD50 / LC50: oral, mortality; for LC50: short-term, feed
[15] = system: Anas platyrhynchos; experiment: LC10; higher = less toxic; conditions: short-term; duration: 14 days; oral; feed; mortality

## CCCCN(CCCC)SN(C)C(=O)Oc1cccc2c1OC(C)(C)C2 [Carbosulfan]
[1]
  LEL: 120 g/ha
[2]; F
  LD50: 6.2 mg/kg-day
[2]; M
  LD50: 4 mg/kg-day
[2]
  LD50: 20 mg/kg-day
[2]; short-term, feed
  LC50: 567 mg/kg-day
[3]
  NOEC: 0.004 mg/L
[4]; F
  LD50: 3.5 mg/kg-day
[4]; M
  LD50: 4.9 mg/kg-day
[5]
  LC50: 0.015 µg/mL (≈ 0.0394 µM)
[6]; acute, clinical chemistry
  NOAEL: 0.5 mg/kg-day
[6]; acute, oral, mortality
  LD50: < 5.6 mg/kg-day
[6]; chronic
  NOAEL: 0.1 mg/kg-day
[6]; reproduction developmental, reproduction
  NOAEL: 1.2 mg/kg-day
[7]
  NOEC: 0.3 mg/kg
[8]; duration: 5 days
  LC50: 114 mg/kg-day
[8]; duration: 7 days
  LC50: 20.8 mg/kg-day
[8]; duration: 14 days
  LC50: 15.8 mg/kg-day
[8]; M/F
  LD50: 8 mg/kg-day
[8]
  LC50: 239 mg/kg-day
  LD50: 82 mg/kg-day
[8]; reproduction developmental
  NOEL: 10.8 mg/kg-day
[9]
  LEL: 1500 g/ha
[10]
  LD50: 0.18 µg/piece
[11]
  NOEC: 0.0032 mg/L
[12]
  NOEC: 20 mg/kg
[13]
  LD50: 42.7 mg/kg-day
[14]; F
  LD50: 0.86 mg/kg-day
[14]; M
  LD50: 0.71 mg/kg-day
[14]; reproductive
  NOEL: 2.5 mg/kg-day
[14]; duration: 5 days
  LC50: 10 mg/kg-day and 17 mg/kg-day
[14]; duration: 14 days
  LC50: 1.6 mg/kg-day
[14]
  LC50: 3.99 mg/kg-day
[15]
  LC10: 0.64 mg/kg-day

From EPA's ToxValDB 9.5 (doi:10.2903/j.efsa.2009.1354)
